Reference: patent publication US11241421B2, “Combination therapies for treating cancer” (UNIVERSITY OF VIRGINIA PATENT FOUNDATION, priority 2016, dated 2022)

Assays:
[1] = relative to the methoxy compound; cited from earlier work
[2] = test system: CBFβ-SMMHC fusion protein; settings: cited from earlier work
[3] = test system: ME-1 cell line, a leukemia cell line with inv(16); settings: cited from earlier work
CBFβ = biological target: T1, CBFβ (Homo sapiens, UniProt Q13951); settings: cited from earlier work
T1 sequence (Q13951 1-182): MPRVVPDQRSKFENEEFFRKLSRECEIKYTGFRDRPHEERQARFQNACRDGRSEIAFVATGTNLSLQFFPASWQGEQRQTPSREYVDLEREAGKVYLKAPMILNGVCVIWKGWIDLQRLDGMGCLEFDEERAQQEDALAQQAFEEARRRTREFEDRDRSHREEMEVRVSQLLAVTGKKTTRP

[4] = test system: Cbfb^+/MYH11; Nras^+/G12D leukemic cells; experiment: Leukemia transplantation studies in mice (inv(16) AML model); format: in vivo; settings: for white blood cell count: peripheral blood, doxorubicin 2 mg/kg single dose, AI-10-49 200 mg/kg daily intraperitoneally for 10 days, FIG. 1; for Lin-Sca1-c-Kit+ cell population (number of cells): spleen, flow cytometry, same dosing, FIG. 4
Experimental: The experiments with animals were performed in accordance with a protocol reviewed and approved by the University of Massachusetts Institutional Animal Care and Use Committee. An efficient mouse model of inv(16)AML was used. (L. Xue, et al., 2014.) Leukemic cells carrying Cbfb^+/MYH11 and Nras^+/G12D oncogenic alleles were generated in CD45.2 C57BL/6 mice, as previously described (Illendula, et al., 2015.) Briefly, 2×10^3 Cbfb^+/MYH11; Nras^+/G12D leukemic cells were transplanted into each of 16 sub-lethally irradiated six to eight-week-old CD45.1 C57BL/6 female mice. Five days post-transplant, mice were placed in 4 groups with 4 mice in each group: DMSO (control, 50 μL), Dox, AI-10-49, and Dox+AI-10-49. Both Dox groups received a single dose of doxorubicin (2 mg/kg) 5 days post-transplant. Both AI-10-49 groups received a daily dose of AI-10-49 (200 mg/kg) in DMSO injected intraperitoneally for 10 days. After this 10-day period, all mice were sacrificed and analyzed for leukemia burden via several measures. Mice were kept under observation by more than one person to determine the median leukemia latency, and were euthanized once signs of disease were detected, including reduced motility and grooming activity, hunched back, pale paws (anemia), and hypothermia. At time of euthanasia, peripheral blood and spleen cells were extracted and analyzed as previously described (Y. H. Kuo, et al., 2006.). Leukemia burden was analyzed in peripheral blood by measuring the total white blood cell counts, the number of cells in the c-kit(+)-gated population, spleen weight and cell number, and spleen Lin-Sca1-c-kit+ population. For Kit+ and Lin-Sca-Kit+ results, flow cytometry was used to measure the effect.

[5] = compared with doxorubicin; cited from earlier work
[6] = compared with daunorubicin; cited from earlier work
[7] = compared with daunorubicin; cited from earlier work; remark: listed apart in the source

## FC(F)(F)Oc1ccc2[nH]c(-c3ccccn3)nc2c1 [A-10-47, 2-(pyridin-2-yl)-5-(trifluoromethoxy)-1H-benzo[d]imidazole]
[1]
  metabolic stability: enhanced metabolic stability

## COc1ccc2[nH]c(-c3ccccn3)nc2c1 [AI-4-57, 5-methoxy-2-(pyridin-2-yl)-1H-benzo[d]imidazole]
[2]
  binding to the CBFβ-SMMHC fusion protein: binds to the CBFβ portion of the CBFβ-SMMHC fusion protein
  inhibition of CBFβ-SMMHC binding to the Runt domain of RUNX proteins: inhibits its binding to the Runt domain of RUNX proteins

## FC(F)(F)Oc1ccc2[nH]c(-c3ccc(OCCOCCOc4ccc(-c5nc6cc(OC(F)(F)F)ccc6[nH]5)nc4)cn3)nc2c1 [AI-10-49]
[2]
  inhibition of CBFβ-SMMHC binding to the Runt domain of RUNX proteins: potent and CBFβ-SMMHC specific
[3]
  cell death: induced cell death
CBFβ
  effect on CBFβ function: minimal effect
[4]
  white blood cell count: reduced
  Lin-Sca1-c-Kit+ cell population (number of cells): modest effect

## COc1cccc2c1C(=O)c1c(O)c3c(c(O)c1C2=O)C[C@@](O)(C(=O)CO)C[C@@H]3O[C@H]1C[C@H](N)[C@H](O)[C@H](C)O1 [Dox, doxorubicin]
[4]
  white blood cell count: reduced
  Lin-Sca1-c-Kit+ cell population (number of cells): no effect

## COc1cccc2c1C(=O)c1c(O)c3c(c(O)c1C2=O)C[C@@](O)(C(=O)CO)C[C@@H]3O[C@H]1C[C@H](N)[C@@H](O)[C@H](C)O1 [Epirubicin]
[5]
  half-life: longer
  volume of distribution: increased

## CC(=O)[C@]1(O)Cc2c(O)c3c(c(O)c2[C@@H](O[C@H]2C[C@H](N)[C@H](O)[C@H](C)O2)C1)C(=O)c1ccccc1C3=O [Idarubicin]
[6]
  cellular uptake: higher
[7]
  lipophilicity: more lipophilic
